Test results: patent US5387610A, “Peptide derivatives of collagenase inhibitor” (Research Corporation Technologies, Inc., priority 1992, dated 1995)
“And” between values parts separate entries of the source, which are not always exact repeats. Equal values may be shown once.

Experiments:
pig synovial collagenase = target: T1, pig synovial collagenase (Sus scrofa, UniProt P21692); assay: Pig synovial collagenase with fluorogenic substrate FS-7 (PSC/FS-7); type: biochemical; conditions: substrate Dnp-Pro-Leu-Gly-Leu-Trp-Ala-D-Arg-NH2; successive lines per compound = diastereomers, higher C18 mobility first
T1 construct: purified porcine synovial collagenase; from tissue; host or cells: pig synovium (synovial enzyme, purified)
T1 sequence (P21692 100-469): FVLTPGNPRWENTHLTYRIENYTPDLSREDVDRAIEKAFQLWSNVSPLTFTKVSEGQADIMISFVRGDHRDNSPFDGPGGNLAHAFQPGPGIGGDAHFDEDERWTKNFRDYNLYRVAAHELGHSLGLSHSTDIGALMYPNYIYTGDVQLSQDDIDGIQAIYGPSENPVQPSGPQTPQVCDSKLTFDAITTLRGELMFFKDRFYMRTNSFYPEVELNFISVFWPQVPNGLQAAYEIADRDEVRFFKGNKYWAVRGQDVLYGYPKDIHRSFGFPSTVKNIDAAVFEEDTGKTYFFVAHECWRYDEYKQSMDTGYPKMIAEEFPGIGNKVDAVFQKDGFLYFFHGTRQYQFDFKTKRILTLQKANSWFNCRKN
Description: [The source words this procedure for another target and reports this target under the same test.] Recombinant human fibroblast collagenase (rHFC) and porcine synovial gelatinase (PSG) were assayed at 37° C. by the procedure of Stack and Gray (1989). The fluorogenic metalloproteinase substrate Dnp-Pro-Leu-Gly-Leu-Trp-Ala-D-Arg-NH2 was dissolved at an initial concentration of 10 μM in 0.05M tris-HCl, 0.2M NaCl, 5 mM CaCl2, pH 7.7. Hydrolysis of the substrate at the Gly-Leu bond results in an increase in fluorescence that was monitored using an SLM-500C spectrofluorometer with excitation at 280 nm and emission at 346 nm. The reaction was initiated by addition of the enzyme; after determining the initial rate of substrate hydrolysis an aliquot of inhibitor was added and the inhibited rate redetermined. For lower affinity inhibitors (IC50>>[E0 ], where E0 is the enzyme concentration), inhibitor potencies were determined from plots of log (A0 /Ai-1) vs. log [Inhibitor], where A0 is the activity measured in the absence of inhibitor and Ai is that measured in the presence of inhibitor at concentration i (Ambrose et al., 1950). For high affinity inhibitors (IC50 =[E0 ]) only an upper limit of inhibitor potency could be estimated (Dixon and Webb, 1979).

[1] = target: T2, Porcine synovial collagenase (Sus scrofa, UniProt P21692); assay: Porcine synovial collagenase activity with type I (calf skin) collagen, gel densitometry (PSC/CSC); type: biochemical; conditions: acid-soluble calf skin collagen 0.8 μM, 35° C., pH 7.7; a range means 50% inhibition lay between the values; successive lines per compound = diastereomers, higher C18 mobility first
T2 construct: purified porcine synovial collagenase; from tissue; host or cells: pig synovium (synovial enzyme, purified)
T2 sequence (P21692 100-469): T1 sequence (P21692 100-469)
Description: Porcine synovial collagenase activity (PSC) was measured with type I collagen essentially as described by Darlak et al. (1990). Varying amounts of inhibitor were added to the acid-soluble calf skin collagen (0.8 μM) at 35° C. in 0.05M tris-HCl, 0.2M NaCl, 5 mM CaCl2, 0.25M glucose, pH 7.7. Collagen degradation was initiated by adding purified porcine synovial collagenase and the reactions were stopped by the addition of an equal volume of sample dilution buffer (Laemmli, 1970) followed by boiling for 2-3 min. Undegraded collagen was resolved from its degradation products by polyacrylamide slab gel electrophoresis as described by Laemmli (1970). The gels were fixed in isopropanol/acetic acid/water (100:40:300 v/v) and then stained with 1% Coomassie Blue R-250 in fixing solution. After destaining, the percentage of α1 chain converted to the corresponding TC fragment was estimated by densitometry using a Bio-Rad model 610 video densitometer. IC50 values were estimated from the dependence of the percent of collagen degraded on inhibitor concentration.

H4[ONHCO]--DL--Leu Trp--NH2 [Compound 2]
IC50 (pig synovial collagenase): 370 µM | IC50 [1]: 180 µM

H4[ONHCO]--DL--Leu I'-Hal--NH2 [Compound 7]
IC50 (pig synovial collagenase): 280 µM | IC50 [1]: 300 to 500 µM

H4[ONHCO]--DL--Leu Hal Ala--NH2 [Compound 5]
IC50 (pig synovial collagenase): 21 µM | IC50 [1]: 25 to 30 µM

HO--NH--CO--CH2 --CH(CH2 CH(CH3)2 --CO--Nal--Pro--NH2 [Compound 12]
IC50 (pig synovial collagenase): 1.1 µM | IC50 [1]: 1 to 3 µM

H4[ONHCO]--DL--Leu Phe--NH2 [Compound 1]
IC50 (pig synovial collagenase): 700 µM | IC50 [1]: 250 µM

CC(C)CC(C(=O)N[C@@H](Cc1ccccc1)C(=O)N[C@@H](C)C(N)=O)C(C)C(=O)NO (single isomer, unassigned) [Compound 16, H4[ONHCOCH(CH3)]--DL--Leu Phe Ala--NH2]
IC50 [1]: 1 µM and > 3 µM
